In brackets after ≈: the same amount, converted by molar mass. Where two headings read alike, the source gives them in different places.
Key:
S. aureus ATCC 13709 = assay: MIC, S. aureus ATCC 13709; assay type: cell-based; conditions: for MIC: Staphylococcus aureus
E. coli ATCC 25922 = assay: MIC, E. coli ATCC 25922; assay type: cell-based; conditions: for MIC: Escherichia coli
[1] = S. aureus, Alamar Blue read after overnight incubation at 35° C.
[2] = E. coli, Alamar Blue read after overnight incubation at 35° C.
[3] = ATCC13709, S. aureus, Alamar Blue read after overnight incubation at 35° C., read-out: MIC Sa
[4] = ATCC25922, E. coli, Alamar Blue read after overnight incubation at 35° C., read-out: MIC Ec

Molecule `CNc1cc(F)cc2c1[nH]c1nc(Cc3cnc(C)nc3)nc(N3CC4(CCC4N)C3)c12` (stereo not drawn) has an SA MIC (S. aureus ATCC 13709; Table 11, compounds wherein L = CH2) of at most 0.5 µg/mL and an EC8 MIC (E. coli ATCC 25922; Table 11, L = CH2, EC8 not defined) of 1 µg/mL.
Work on `CNc1cc(F)cc2c1[nH]c1nc(Oc3cnc4ccnn4c3)nc(N3CC[C@]4(C[C@@H]4N)C3)c12` [Compound 10.12] yielded an MIC Sa (S. aureus ATCC 13709; Table 18, Sa) of at most 0.5 µg/mL and an MIC Ec (E. coli ATCC 25922; Table 18, Ec) of at most 0.5 µg/mL.
For `CNc1cc(F)cc2c1[nH]c1nc(Oc3cnc4cccnc4c3)nc(N3CC4CC4(N)C3)c12` (stereo not drawn) [Compound 4.036], the “MIC Sa” value (S. aureus ATCC 13709; [1]) was at most 0.5 µg/mL and the “MIC Ec” value (E. coli ATCC 25922; [2]) was at most 0.5 µg/mL.
Work on `CNc1cc(F)cc2c1[nH]c1nc(Oc3cnc(C)nc3)nc(N3CCC(N)(CN)C3)c12` (stereo not drawn) yielded an MIC (S. aureus ATCC 13709; ATCC13709, Table 16, new R4 substituents, read-out: SA MIC) of at most 0.5 µg/mL and an MIC (E. coli ATCC 25922; ATCC25922, Table 16, new R4 substituents, EC8 not defined, read-out: EC8 MIC) of 16 µg/mL (≈ 36.6 µM).
In the case of `CNc1cccc2c1[nH]c1nc(Sc3cncc(S(N)(=O)=O)c3)nc(N3CC4C(N)C4C3)c12` (stereo not drawn) [Compound 1.41], the MIC (S. aureus ATCC 13709; [3]) is reported as 4 µg/mL (≈ 8.29 µM) and the MIC (E. coli ATCC 25922; [4]) is reported as 8 µg/mL (≈ 16.6 µM).
Molecule `CNc1cc(F)cc2c1[nH]c1nc(Oc3cnc4c(c3)C(=O)OC4(C)C)nc(N3C[C@H]4C[C@@H]3C[C@H]4N)c12` [Compound 10.72] has an MIC Sa (S. aureus ATCC 13709; Table 18, Sa) of at most 0.5 µg/mL and an MIC Ec (E. coli ATCC 25922; Table 18, Ec) of at most 0.5 µg/mL.
`CNc1cccc2c1[nH]c1nc(Oc3cnc(C)nc3)cc(N3C[C@H](NC)C4(CC4)C3)c12` [Compound 3.49] gave an MIC (S. aureus ATCC 13709; [3]) of at most 0.5 µg/mL and an MIC (E. coli ATCC 25922; [4]) of at most 0.5 µg/mL.
For `CCOC(=O)c1ncc(Oc2nc(N3C[C@H](N)C4(CC4)C3)c3c(n2)[nH]c2c(NC)cc(F)cc23)cn1` [Compound 4.402], the “MIC Sa” value (S. aureus ATCC 13709; [1]) was at most 0.5 µg/mL and the “MIC Ec” value (E. coli ATCC 25922; [2]) was at most 0.5 µg/mL.
With `CNc1cc(F)cc2c1[nH]c1nc(Oc3cnc4cccnc4c3)nc(N3CC4C(N)C4C3)c12` (stereo not drawn) [Compound 4.037] the “MIC Sa” value (S. aureus ATCC 13709; [1]) was at most 0.5 µg/mL and the “MIC Ec” value (E. coli ATCC 25922; [2]) was at most 0.5 µg/mL.
Molecule `CNc1ncnc2c1[nH]c1nc(Oc3cncc(F)c3)nc(N3CC(N)C4(CC4)C3)c12` (stereo not drawn) [Compound 7.06] has an MIC (S. aureus ATCC 13709; [3]) of 8 µg/mL (≈ 19 µM) and an MIC (E. coli ATCC 25922; [4]) of 64 µg/mL (≈ 152 µM).
Work on `CNc1cccc2c1[nH]c1nc(Oc3cncnc3)cc(N3CC4C(C3)C4NCC3CC3)c12` (stereo not drawn) [Compound 3.13] yielded an MIC (S. aureus ATCC 13709; [3]) of at most 0.5 µg/mL and an MIC (E. coli ATCC 25922; [4]) of 1 µg/mL (≈ 2.26 µM).
For `CNc1cc(F)cc2c1[nH]c1nc(Oc3cnc(N4CCC4)nc3)nc(N3CC4C(N)C4C3)c12` (stereo not drawn) [Compound 4.296], the “MIC Sa” value (S. aureus ATCC 13709; [1]) was at most 0.5 µg/mL and the “MIC Ec” value (E. coli ATCC 25922; [2]) was at most 0.5 µg/mL.
With `CNc1cc(F)cc2c1[nH]c1nc(Oc3cnc4ccoc4c3)nc(N3CC4CC(N)C4C3)c12` (stereo not drawn) [Compound 4.290] the “MIC Sa” value (S. aureus ATCC 13709; [1]) was at most 0.5 µg/mL and the “MIC Ec” value (E. coli ATCC 25922; [2]) was at most 0.5 µg/mL.
`CNc1cc(F)cc2c1[nH]c1nc(Nc3cnc(C)nc3)nc(N3C[C@H]4CC3C[C@H]4N)c12` was tested, and the SA MIC (S. aureus ATCC 13709; Table 13, L = NH) was at most 0.5 µg/mL and the EC MIC (E. coli ATCC 25922; Table 13, L = NH) was at most 0.5 µg/mL.
For `CNc1cccc2c1[nH]c1nc(Sc3cnc4nccnc4c3)nc(N3CC[C@H](N)C3)c12` [Compound 1.15], the MIC (S. aureus ATCC 13709; [3]) was 1 µg/mL (≈ 2.25 µM) and the MIC (E. coli ATCC 25922; [4]) was 2 µg/mL (≈ 4.51 µM).
`CNc1cc(F)c(F)c2c1[nH]c1nc(Oc3cnc([C@@H](C)O)nc3)nc(N3CC4NCC[C@@H]4C3)c12` (stereo partly drawn) [Compound 10.31] showed an MIC Sa (S. aureus ATCC 13709; Table 18, Sa) of at most 0.5 µg/mL and an MIC Ec (E. coli ATCC 25922; Table 18, Ec) of at most 0.5 µg/mL.
`CNc1cc(F)cc2c1[nH]c1nc(Oc3cnc(C)nc3)nc(-c3cccc(CN)c3F)c12` [Compound 4.447] showed an MIC (S. aureus ATCC 13709; [3]) of 4 µg/mL (≈ 8.94 µM) and an MIC (E. coli ATCC 25922; [4]) of 16 µg/mL (≈ 35.8 µM).
Molecule `CNc1cccc2c1[nH]c1nc(Oc3cnc(C)nc3)cc(N3CC4C(N)C4C3)c12` (stereo not drawn) [Compound 3.29] has an MIC (S. aureus ATCC 13709; [3]) of at most 0.5 µg/mL and an MIC (E. coli ATCC 25922; [4]) of at most 0.5 µg/mL.
For `CNc1cc(F)c2c3c1[nH]c1nc(Oc4cncnc4)nc(c13)-c1ccccc1NC2`, the SA MIC (S. aureus ATCC 13709; Table 12, Z is C and connected to R4) was at most 0.5 µg/mL and the EC8 MIC (E. coli ATCC 25922; Table 12, Z is C and connected to R4, EC8 not defined) was over 16 µg/mL.
With `CNNc1cc(F)cc2c1[nH]c1nc(Oc3cnc(C)nc3)nc(N3CC4C(N)C4C3)c12` (stereo not drawn) [Compound 2.1] the “MIC Sa” value (S. aureus ATCC 13709; [1]) was at most 0.5 µg/mL and the “MIC Ec” value (E. coli ATCC 25922; [2]) was over 16 µg/mL.
With `CNc1cc(F)cc2c1[nH]c1nc(Oc3cnc(N(C)C)nc3)nc(N3CC(N)C4(CC4)C3)c12` (stereo not drawn) [Compound 4.209] the “MIC Sa” value (S. aureus ATCC 13709; [1]) was at most 0.5 µg/mL and the “MIC Ec” value (E. coli ATCC 25922; [2]) was at most 0.5 µg/mL.
